Results on four compounds are retold here after US6995243B2, “Antibodies that recognize and bind phosphorylated human glucocorticoid receptor and methods of using same” (New York University, priority 2002, dated 2006).

Entries after “also recorded” stand apart in the source; their conditions may differ.

The target in one experiment is total GR (Homo sapiens, UniProt P04150). The note with it: 12 h continuous hormone treatment, 100 nM.
Experiment [1] deals with T1, human GR phosphorylated at S211 (Homo sapiens, UniProt P04150).
T1 construct: expressed in transfected cells
T1 sequence (P04150 1-777): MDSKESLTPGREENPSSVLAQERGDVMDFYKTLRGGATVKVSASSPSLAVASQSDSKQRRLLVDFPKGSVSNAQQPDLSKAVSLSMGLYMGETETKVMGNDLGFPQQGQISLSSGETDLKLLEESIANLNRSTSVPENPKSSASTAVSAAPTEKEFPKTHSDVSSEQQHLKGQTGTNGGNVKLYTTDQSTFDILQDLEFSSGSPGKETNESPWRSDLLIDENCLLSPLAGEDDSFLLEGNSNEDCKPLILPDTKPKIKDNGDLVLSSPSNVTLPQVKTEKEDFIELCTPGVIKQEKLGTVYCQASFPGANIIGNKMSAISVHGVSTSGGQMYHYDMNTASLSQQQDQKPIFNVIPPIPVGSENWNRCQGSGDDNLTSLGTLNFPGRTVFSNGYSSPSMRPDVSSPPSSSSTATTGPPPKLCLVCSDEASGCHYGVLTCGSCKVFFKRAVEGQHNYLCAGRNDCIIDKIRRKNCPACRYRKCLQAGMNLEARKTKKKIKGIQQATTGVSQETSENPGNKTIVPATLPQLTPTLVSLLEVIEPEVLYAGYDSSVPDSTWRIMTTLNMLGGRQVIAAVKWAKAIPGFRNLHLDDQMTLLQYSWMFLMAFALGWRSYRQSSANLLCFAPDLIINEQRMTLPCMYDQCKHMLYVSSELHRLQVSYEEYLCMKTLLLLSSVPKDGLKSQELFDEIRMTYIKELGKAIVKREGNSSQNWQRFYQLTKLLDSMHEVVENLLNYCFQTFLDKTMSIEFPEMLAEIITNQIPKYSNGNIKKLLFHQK
The experiment is described as follows: Immunoblot of GR S211 phosphorylation in U2OS-hGR cell extracts. The experiment is classed as cell-based. The note with it: 1 h; for GR phosphorylation at S211: ligand 100 nM, U2OS-hGR cells.
Description: In FIG. 6A, U20S-hGR were treated with ethanol (−) or the ligands indicated (100 nM) for 1 hour and whole cell extracts were prepared. For antagonism experiments, a 10-fold excess of RU486 (1 μM) or ZK299 (1 μM) were added simultaneously with 100 nM Dex for 1 h prior to cell lysis. Equal amounts of protein from each treatment were analyzed by immunoblotting with either phospho-S203, phospho-S211 or HA antibodies, reflective of the amount of total GR present in each lane.
Cells were placed on ice, washed twice in phosphate-buffer saline (PBS), lysed in 0.5 ml of buffer containing 50 mM HEPES, pH 7.5, 150 mM NaCl, 1 mM EDTA, 1 mM EGTA, 1 mM NaF, 1% Triton X-100, 10% glycerol and additional protease and phosphatase inhibitors: 1 mM PMSF, 20 mM β-glycerophosphate, 8 mM sodium pyrophosphate, 1 μg/ml leupeptin, pepstatin A and aprotinin (Roche). […] The soluble supernatants were normalized for total protein concentration using the Bio-Rad protein assay (Bio-Rad Laboratories, Hercules, Calif.) and the samples were boiled for 3 min in 2×SDS sample buffer and stored at −20° C.
Cell extracts or immunoprecipitates containing GR were separated by 10% SDS-polyacrylamide gel electrophoresis (PAGE) and were transferred to Immobilon paper (Millipore Corp., Bedford, Mass.) at 110V for 80 min in Tris-Glycine transfer buffer. The membranes were blocked overnight in 5% bovine serum albumin (BSA) in Tris-buffered saline, pH 7.4 (TBS) (blocking solution) at 4° C., then were incubated in the blocking buffer with primary antibody at room temperature (RT) for 2–4 h using 1:1,000 and 1:10,000 dilution of serum for phospho-S211 (Ab353) and phospho-S203 (Ab211), respectively. […] The membranes were washed three times for 10 min in TBS/0.1% Triton X-100 and twice in TBS and incubated for 1 h at RT with 0.2 μg/ml protein A conjugated to horseradish peroxidase (HRP) (Kirkegaard and Perry Laboratories, Gaithersburg, Md.). For blots using the anti-HA-tag monoclonal antibody (α-HA; Roche), an HRP-conjugated goat-anti-mouse IgG secondary antibody was used. Blots were then washed three times for 10 min in TBS-0.1% Triton X-100, twice in TBS and developed using enhanced chemiluminescence (ECL) according to manufacturer's instructions (Amersham Pharmacia Biotech Inc., Piscataway, N.J.).

Experiment [2] deals with GR-mediated transcriptional activation. The experiment is described as follows: MMTV-luciferase reporter GR transcriptional activation in U2OS-hGR cells. It counts as cell-based, human. The note with it: ligand 100 nM, 1 h.
Description: In FIG. 6B, U2OS-hGR cells were transiently transfected with the MMTV-luciferase reporter construct along with pCMV-lacZ as an internal control. After 16 h, the cells were treated with ligands indicated (100 nM) for 1 h, conditions identical to those used for the immunoblot analysis, and luciferase activity determined.
The target in experiment [3] is T2, human GR phosphorylated at S203 (Homo sapiens, UniProt P04150).
T2 sequence (P04150 1-777): T1 sequence (P04150 1-777)
The following applies: ligand 100 nM, 1 h, U2OS-hGR cells.
Description: In FIG. 6A, U20S-hGR were treated with ethanol (−) or the ligands indicated (100 nM) for 1 hour and whole cell extracts were prepared. For antagonism experiments, a 10-fold excess of RU486 (1 μM) or ZK299 (1 μM) were added simultaneously with 100 nM Dex for 1 h prior to cell lysis. Equal amounts of protein from each treatment were analyzed by immunoblotting with either phospho-S203, phospho-S211 or HA antibodies, reflective of the amount of total GR present in each lane. In FIG. 6B, U2OS-hGR cells were transiently transfected with the MMTV-luciferase reporter construct along with pCMV-lacZ as an internal control. After 16 h, the cells were treated with ligands indicated (100 nM) for 1 h, conditions identical to those used for the immunoblot analysis, and luciferase activity determined.
Cells were placed on ice, washed twice in phosphate-buffer saline (PBS), lysed in 0.5 ml of buffer containing 50 mM HEPES, pH 7.5, 150 mM NaCl, 1 mM EDTA, 1 mM EGTA, 1 mM NaF, 1% Triton X-100, 10% glycerol and additional protease and phosphatase inhibitors: 1 mM PMSF, 20 mM β-glycerophosphate, 8 mM sodium pyrophosphate, 1 μg/ml leupeptin, pepstatin A and aprotinin (Roche). Lysates were centrifuged at 12,000 rpm for 15 min at 4° C. […]

Another experiment addresses T3, GR (Homo sapiens, UniProt P04150).
T3 sequence (P04150 1-777): T1 sequence (P04150 1-777)
The note with it: cited from earlier work.

Description for total GR: FIGS. 7A–7C are immunoblots and graph showing the kinetics of S203 and S211 phosphorylation in response to Dex treatment. U2OS-hGR cells were treated with ethanol (−) or Dex (100 nM) for the time indicated. Whole cell lysates were prepared, normalized and analyzed by immunoblotting with phospho-S203, phospho-S211 or HA antibodies. Immunoblot images of GR phosphorylated at S203 and S211 in the first hour of Dex treatment (FIG. 7A) or throughout 12 h of continuous Dex treatment (FIG. 7B); the total GR in each sample was determined by immunoblotting for HA. In FIG. 7C, quantitative analysis of immunoblot results in panel B normalized to total GR detected by HA. The data shown are from a single experiment that is representative of at least three independent experiments. […]
Cell extracts or immunoprecipitates containing GR were separated by 10% SDS-polyacrylamide gel electrophoresis (PAGE) and were transferred to Immobilon paper (Millipore Corp., Bedford, Mass.) at 110V for 80 min in Tris-Glycine transfer buffer. […] Endogenous GR was detected using the N499 polyclonal antibody, raised against residues 1–499 of the human GR. […] Quantitative analysis of immunoblots was performed using the NIH image software package (version 1.62).

Turning to `C[C@@H]1C[C@H]2[C@@H]3CCC4=CC(=O)C=C[C@]4(C)[C@@]3(F)[C@@H](O)C[C@]2(C)[C@@]1(O)C(=O)CO` [Dex, dexamethasone], at total GR, the “Reduction of total GR” value is listed as approximately 80%.

On to `C[C@]12C=CC(=O)C=C1CC[C@@H]1[C@@H]2[C@@H](O)C[C@@]2(C)[C@H]1CC[C@]2(O)C(=O)CO` [Prednisolone], for which the “GR phosphorylation at S211” value in experiment [1] was “promoted S211 phosphorylation; also recorded: induced robust GR phosphorylation at S211”. Also, the “GR transcriptional activation (MMTV-luciferase)” value in experiment [2] is “pattern mirrored in the GR transcriptional activation assay”.

Take `CN(C)c1ccc([C@H]2C[C@]3(C)[C@@H](CC[C@]3(O)CCCO)[C@@H]3CCC4=CC(=O)CCC4=C32)cc1` [ZK299]: the “Blocking of Dex-dependent GR phosphorylation” value in experiment [1] (10-fold molar excess (1 μM) added with 100 nM Dex) is listed as “not as effective”. In addition, the “GR phosphorylation at S211” value in experiment [1] is “almost no effect”. In experiment [3], the “GR phosphorylation at S203” value is “almost no effect”.

For `C=C1[C@@H](O)[C@@H]2O[C@]3(CC[C@H](/C=C/[C@@H](C)[C@@H]4CC(C)=C[C@@]5(O[C@H](C[C@@](C)(O)C(=O)O)CC[C@H]5O)O4)O3)CC[C@H]2O[C@@H]1[C@@H](O)C[C@H](C)[C@H]1O[C@@]2(CCCCO2)CC[C@H]1C` [okadaic acid], at GR, the “Effect on GR reported in the literature” value is reported as “results in GR hyperphosphorylation”.
